Source: the NIST ThermoML archive (doi:10.1016/j.tca.2014.02.019)

Assay: xn = mol fraction of the nth substance listed
Settings: 101 kPa, Liquid; for viscosity: Falling or rolling sphere viscometry; for mass density: Vibrating tube method

CCOS(=O)(=O)[O-].CC[N+]1(C)CCOCC1 [4-ethyl-4-methylmorpholinium ethyl sulfate] + O
Settings | mass density [kg/m3] | viscosity [mPa·s]
298.15 K, x1 = 0.1255 | 1160.26 | 7.655
298.15 K, x1 = 0.2214 | 1196.87 | 20.62
298.15 K, x1 = 0.3165 | 1215.39 | 46.5
298.15 K, x1 = 0.4406 | 1229.15 | 115.6
298.15 K, x1 = 0.6319 | 1240.92 | 529.2
298.15 K, x1 = 0.7239 | 1244.69 | 686.5
298.15 K, x1 = 0.807 | 1247.34 | 2262
298.15 K, x1 = 1 | 1252.26 | –
303.15 K, x1 = 0.1255 | 1157.12 | 6.513
303.15 K, x1 = 0.2214 | 1193.61 | 16.92
303.15 K, x1 = 0.3165 | 1212.17 | 36.79
303.15 K, x1 = 0.4406 | 1226.03 | 93.81
303.15 K, x1 = 0.6319 | 1237.71 | 400.9
303.15 K, x1 = 0.7239 | 1241.43 | 533.1
303.15 K, x1 = 0.807 | 1244.19 | 1630
303.15 K, x1 = 1 | 1249.05 | –
308.15 K, x1 = 0.1255 | 1153.95 | 5.589
308.15 K, x1 = 0.2214 | 1190.35 | 14.11
308.15 K, x1 = 0.3165 | 1208.94 | 29.62
308.15 K, x1 = 0.4406 | 1222.87 | 72.42
308.15 K, x1 = 0.6319 | 1234.48 | 309.1
308.15 K, x1 = 0.7239 | 1238.23 | 408.3
308.15 K, x1 = 0.807 | 1241 | 1088
308.15 K, x1 = 1 | 1245.86 | –
313.15 K, x1 = 0.1255 | 1150.75 | 4.817
313.15 K, x1 = 0.2214 | 1187.08 | 11.93
313.15 K, x1 = 0.3165 | 1205.7 | 24.24
313.15 K, x1 = 0.4406 | 1219.69 | 57.41
313.15 K, x1 = 0.6319 | 1231.24 | 226.8
313.15 K, x1 = 0.7239 | 1235.04 | 308.8
313.15 K, x1 = 0.807 | 1237.81 | 746.9
313.15 K, x1 = 1 | 1242.67 | 2426
318.15 K, x1 = 0.1255 | 1147.52 | 4.176
318.15 K, x1 = 0.2214 | 1183.79 | 10.2
318.15 K, x1 = 0.3165 | 1202.45 | 20.16
318.15 K, x1 = 0.4406 | 1216.5 | 46.03
318.15 K, x1 = 0.6319 | 1228.05 | 170.3
318.15 K, x1 = 0.7239 | 1231.83 | 240
318.15 K, x1 = 0.807 | 1234.63 | 526.7
318.15 K, x1 = 1 | 1239.51 | 1677
323.15 K, x1 = 0.1255 | 1144.26 | 3.673
323.15 K, x1 = 0.2214 | 1180.48 | 8.814
323.15 K, x1 = 0.3165 | 1199.19 | 16.96
323.15 K, x1 = 0.4406 | 1213.31 | 37.3
323.15 K, x1 = 0.6319 | 1224.95 | 130.6
323.15 K, x1 = 0.7239 | 1228.72 | 180.6
323.15 K, x1 = 0.807 | 1231.45 | 379.7
323.15 K, x1 = 1 | 1236.35 | 1129
328.15 K, x1 = 0.1255 | 1140.96 | 2.845
328.15 K, x1 = 0.2214 | 1177.17 | 7.649
328.15 K, x1 = 0.3165 | 1195.92 | 14.47
328.15 K, x1 = 0.4406 | 1210.11 | 30.77
328.15 K, x1 = 0.6319 | 1221.84 | 101.7
328.15 K, x1 = 0.7239 | 1225.53 | 138.4
328.15 K, x1 = 0.807 | 1228.26 | 280.6
328.15 K, x1 = 1 | 1233.2 | 779.3
333.15 K, x1 = 0.1255 | 1137.63 | 2.896
333.15 K, x1 = 0.2214 | 1173.83 | 6.732
333.15 K, x1 = 0.3165 | 1192.63 | 12.44
333.15 K, x1 = 0.4406 | 1206.91 | 25.72
333.15 K, x1 = 0.6319 | 1218.72 | 80.93
333.15 K, x1 = 0.7239 | 1222.36 | 108.1
333.15 K, x1 = 0.807 | 1225.07 | 211.6
333.15 K, x1 = 1 | 1230.06 | 552.3
338.15 K, x1 = 0.1255 | 1134.26 | 2.626
338.15 K, x1 = 0.2214 | 1170.4 | 5.925
338.15 K, x1 = 0.3165 | 1189.38 | 10.79
338.15 K, x1 = 0.4406 | 1203.71 | 21.68
338.15 K, x1 = 0.6319 | 1215.6 | 65
338.15 K, x1 = 0.7239 | 1219.28 | 85.65
338.15 K, x1 = 0.807 | 1221.94 | 162.7
338.15 K, x1 = 1 | 1226.93 | 400.8
343.15 K, x1 = 0.1255 | 1130.86 | 2.124
343.15 K, x1 = 0.2214 | 1167.12 | 5.3
343.15 K, x1 = 0.3165 | 1186.1 | 9.457
343.15 K, x1 = 0.4406 | 1200.5 | 18.46
343.15 K, x1 = 0.6319 | 1212.48 | 53
343.15 K, x1 = 0.7239 | 1216.18 | 68.72
343.15 K, x1 = 0.807 | 1218.8 | 126.8
343.15 K, x1 = 1 | 1223.81 | 297.3
